The record followed here is patent US9107408B2, “Plant disease controlling composition and method for controlling plant disease” (SUMITOMO CHEMICAL COMPANY, LIMITED, priority 2010, dated 2015).

The assay has as its system gray mold fungus (Botrytis cinerea). As to the kind of experiment: Cucumber leaf disk preventive test against gray mold fungus. Format: in vivo. The note with it: for pest or weed control at 0.5 ppm / pest or weed control at 5 ppm: Botrytis cinerea, foliar, 96 h, read-out: preventive value (%). How it is done: True leaf of cucumber is punched out with cork borer to 13 mm in diameter to prepare a leaf disk. In 24 well microwell plate that is dispensed with 1 ml 0.8% water agar, the leaf disk is placed such that the upper side of the leaf is in an upward direction. Thereto is added 20 micro liter a testing solution prepared by mixing a dimethyl sulfoxide solution of the present compound (racemate) and a dimethyl sulfoxide solution of tebuconazole to a predetermined concentration to treat the leaf disk.
After confirming that the testing medical solution is dried, conidium of gray mold fungus (Botrytis cinerea) is suspended into potato dextrose broth (DIFCO) in a density of about 10^5 conidium/mL and is then subjected to a spray inoculation. After leaving to stand the leaf disk in a growth chamber set up at 15° C. for four days, an onset area on the leaf is measured and then calculated an onset area rate (hereinafter, referred to as an onset area rate of treated group).
The same operation is carried out with 20 micro liter water instead of 20 micro liter a testing medicine solution to calculate an onset area rate (hereinafter, referred to an onset area rate of non-treated group).
A preventive value is calculated from the above onset area rate of treated group and the onset area rate of non-treated group by the following equation: Preventive value (%)=100×(A−B)/A
A: an onset area rate of treated group
B: an onset area rate of non-treated group
The same operations as described in Test Example 1 are carried out with triadimenol, bitertanol, oxpoconazole fumarate, cyazofamid, pefurazoate, triflumizole, or hymexazol instead of tebuconazole, so as to calculate respective preventive values.
Also for comparison, the same operations as described in Test Example 1 are carried out with the exception that the testing medicine solution is substituted with a predetermined concentration of each dimethyl sulfoxide solution of the present compound (racemate), triadimenol, bitertanol, oxpoconazole fumarate, cyazofamid, pefurazoate, triflumizole, or hymexazol, so as to calculate respective preventive values.
For comparison, the same operations as described in Test Example 1 are carried out with the exception that the testing medicine solution is substituted with a predetermined concentration of a dimethyl sulfoxide solution of tebuconazole, so as to calculate a preventive value.

[1] abbreviates: azole compound alone 0.5 ppm, cucumber leaf disk, 15° C., four days.
The mark [2] stands for this setting: azole compound alone 5.0 ppm, cucumber leaf disk, 15° C., four days.

Read-outs that look alike come from different tables or passages of the source.

In the case of `CC(C)(C)C(O)C(Oc1ccc(-c2ccccc2)cc1)n1cncn1` (stereo not shown) [bitertanol], the pest or weed control at 0.5 ppm under setting [1] is 45%. Under setting [2], the pest or weed control at 5 ppm stood at 56%.
For `Cc1ccc(-c2c(Cl)nc(C#N)n2S(=O)(=O)N(C)C)cc1` [cyazofamid] the same measures were 10% and 15%.
For `Cc1cc(O)no1` [hymexazol], in that order: 5% and 10%.
As to `CC1(C)COC(C)(CCCc2ccc(Cl)cc2)N1C(=O)n1ccnc1.CC1(C)COC(C)(CCCc2ccc(Cl)cc2)N1C(=O)n1ccnc1.O=C(O)/C=C/C(=O)O` (stereo not shown) [oxpoconazole fumarate], the “preventive value (%)” value under setting [1] stood at 49% and the “preventive value (%)” value under setting [2] was determined as 59%.
Regarding `C=CCCCOC(=O)C(CC)N(Cc1ccco1)C(=O)n1ccnc1` (stereo not shown) [pefurazoate], the pest or weed control at 0.5 ppm turned out to be 44% and the pest or weed control at 5 ppm was 53%.
Turning to `CC(C)(C)C(O)(CCc1ccc(Cl)cc1)Cn1cncn1` (stereo not shown) [tebuconazole], the pest or weed control at 0.5 ppm under setting [1] was determined as 40%. In addition, the pest or weed control at 5 ppm under setting [2] was determined as 54%.
For `CC(C)(C)C(O)C(Oc1ccc(Cl)cc1)n1cncn1` (stereo not shown) [triadimenol], in that order: 45% and 58%.
For `CCCOC/C(=N\c1ccc(Cl)cc1C(F)(F)F)n1ccnc1` [triflumizole] the same measures were 44% and 57%.
